Experimental data: PubChem BioAssay AID248 (DTP/NCI, 2004)
Several values for one entry are separate records, joined by “and”; a condition that tells them apart may be missing. Equal entries are not always repeated. Toxic doses and inconclusive results are not listed. No stated cut-off is given here; in the data, active means T/C of 150% or more; inactive means T/C below 125%. Peptide text beside a SMILES is read from it. * marks the point of attachment. ONp = O=[N+]([O-])c1ccc(O*)cc1; Tos = Cc1ccc(S(=O)(=O)*)cc1

Tested on: L1210 leukemia ip in BDF1 mice, survival T/C
Experiment: NCI In Vivo Anticancer Drug Screen. Data for tumor model L1210 Leukemia (intraperitoneal) in B6D2F1 (BDF1) mice
Conditions: endpoint: mean survival time, higher = longer survival
In short: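 Each compound was tested against a transplantable tumor grown in mice. The endpoint was survival, with treated animals benchmarked against vehicle controls as a simple ratio.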

[1] = dose: 100.0 mg/kg/injection, schedule: Q01DX001 (ip), vehicle: saline
[2] = dose: 100.0 mg/kg/injection, schedule: Q01DX009 (ip), vehicle: saline with Tween-80
[3] = dose: 200.0 mg/kg/injection, schedule: Q01DX001 (ip), vehicle: saline
[4] = dose: 200.0 mg/kg/injection, schedule: Q01DX009 (ip), vehicle: saline with Tween-80
[5] = dose: 400.0 mg/kg/injection, schedule: Q01DX001 (ip), vehicle: saline
[6] = dose: 400.0 mg/kg/injection, schedule: Q01DX009 (ip), vehicle: saline with Tween-80
[7] = dose: 100.0 mg/kg/injection, schedule: Q04DX003 (ip), vehicle: saline with Tween-80
[8] = dose: 200.0 mg/kg/injection, schedule: Q04DX003 (ip), vehicle: saline with Tween-80
[9] = dose: 400.0 mg/kg/injection, schedule: Q04DX003 (ip), vehicle: saline with Tween-80

Measured: T/C

C=C(C)CSC(=S)NNc1ccccc1
inactive: dose: 150.0 mg/kg/injection, schedule: Q01DX009 (ip), vehicle: saline with Tween-80 93 % of control | dose: 225.0 mg/kg/injection, schedule: Q01DX009 (ip), vehicle: saline with Tween-80 86 % of control

Cc1ccccc1Sc1cc2ccccc2c2ccccc12
inactive: [1] 94 % of control | [2] 96 % of control | [3] 97 % of control | [4] 98 % of control | [5] 94 % of control | [6] 101 % of control

O=C(NO)Nc1nc(Cl)c(Cl)nc1Cl
inactive: dose: 25.0 mg/kg/injection, schedule: Q01DX009 (ip), vehicle: water 94 % of control | dose: 50.0 mg/kg/injection, schedule: Q01DX009 (ip), vehicle: water 100 % of control

NC(N)=NC(N)=NCCc1ccccc1
inactive: [1] 94 % of control | [3] 94 % of control

Cc1c2c([nH]c(=O)c1C)C=CC(Br)C2Br (stereo not drawn)
inactive: dose: 100.0 mg/kg/injection, schedule: Q01DX001 (ip), vehicle: other 93 % of control | dose: 200.0 mg/kg/injection, schedule: Q01DX001 (ip), vehicle: other 101 % of control | dose: 400.0 mg/kg/injection, schedule: Q01DX001 (ip), vehicle: other 98 % of control

CSCSCC(NS(=O)(=O)c1ccc(C)cc1)C(=O)O (stereo not drawn)
inactive: [2] 109 % of control | [7] 107 % of control | [4] 109 % of control | [8] 96 % of control | [6] 104 % of control | [9] 105 % of control

CCOC(=O)Oc1ccc(Br)cc1Br
inactive: [1] 104 % of control | dose: 100.0 mg/kg/injection, schedule: Q01DX009 (ip), vehicle: carboxymethylcellulose (CMC) 93 % of control and 96 % of control | dose: 100.0 mg/kg/injection, schedule: Q04DX002 (ip), vehicle: saline 99 % of control | dose: 100.0 mg/kg/injection, schedule: Q04DX003 (ip), vehicle: saline 103 % of control | [3] 102 % of control | dose: 200.0 mg/kg/injection, schedule: Q01DX009 (ip), vehicle: carboxymethylcellulose (CMC) 94 % of control and 97 % of control | dose: 200.0 mg/kg/injection, schedule: Q04DX002 (ip), vehicle: saline 92 % of control | dose: 200.0 mg/kg/injection, schedule: Q04DX003 (ip), vehicle: saline 95 % of control | [5] 104 % of control | dose: 400.0 mg/kg/injection, schedule: Q01DX009 (ip), vehicle: carboxymethylcellulose (CMC) 92 % of control and 93 % of control | dose: 400.0 mg/kg/injection, schedule: Q04DX002 (ip), vehicle: saline 104 % of control | dose: 400.0 mg/kg/injection, schedule: Q04DX003 (ip), vehicle: saline 102 % of control

S=c1[nH]ccc2n[nH]nc12
inactive: [7] 101 % of control | [8] 98 % of control | [9] 101 % of control

ClCCN(CCCl)c1ccc(C=Nc2ccc(-c3ccccn3)cc2)cc1
inactive: dose: 50.0 mg/kg/injection, schedule: Q01DX001 (ip), vehicle: carboxymethylcellulose (CMC) 102 % of control | dose: 100.0 mg/kg/injection, schedule: Q01DX001 (ip), vehicle: carboxymethylcellulose (CMC) 96 % of control | dose: 200.0 mg/kg/injection, schedule: Q01DX001 (ip), vehicle: carboxymethylcellulose (CMC) 91 % of control | dose: 400.0 mg/kg/injection, schedule: Q01DX001 (ip), vehicle: carboxymethylcellulose (CMC) 100 % of control

C/C=C1\C[C@@H]2C(OC)Nc3cc(O)c(OC)cc3C(=O)N2C1 (stereo partly drawn)
inactive: dose: 0.02 mg/kg/injection, schedule: Q01DX009 (ip), vehicle: saline 98 % of control | dose: 0.04 mg/kg/injection, schedule: Q01DX009 (ip), vehicle: saline 98 % of control | dose: 0.09 mg/kg/injection, schedule: Q01DX009 (ip), vehicle: saline 92 % of control | dose: 0.18 mg/kg/injection, schedule: Q01DX009 (ip), vehicle: saline 101 % of control | dose: 0.18 mg/kg/injection, schedule: Q04DX002 (ip), vehicle: saline 100 % of control | dose: 0.37 mg/kg/injection, schedule: Q04DX002 (ip), vehicle: saline 100 % of control | dose: 0.75 mg/kg/injection, schedule: Q04DX002 (ip), vehicle: saline 110 % of control

CCOC(=O)/C=C/c1ccc([N+](=O)[O-])cc1
inactive: dose: 100.0 mg/kg/injection, schedule: Q04DX003 (ip), vehicle: Klucel (hydroxypropylcellulose) (HPC) 95 % of control | dose: 200.0 mg/kg/injection, schedule: Q04DX003 (ip), vehicle: Klucel (hydroxypropylcellulose) (HPC) 102 % of control | dose: 400.0 mg/kg/injection, schedule: Q04DX003 (ip), vehicle: Klucel (hydroxypropylcellulose) (HPC) 98 % of control

Cc1ccc(S(=O)(=O)NCC(=O)NCC(=O)Oc2ccc([N+](=O)[O-])cc2)cc1 (Tos-Gly-Gly-ONp)
inactive: dose: 100.0 mg/kg/injection, schedule: Q04DX003 (ip), vehicle: other 105 % of control | dose: 200.0 mg/kg/injection, schedule: Q04DX003 (ip), vehicle: other 102 % of control | dose: 400.0 mg/kg/injection, schedule: Q04DX003 (ip), vehicle: other 98 % of control

CC(=O)c1ccccc1-n1c(C)ccc1C
inactive: dose: 100.0 mg/kg/injection, schedule: Q01DX009 (ip), vehicle: saline 95 % of control | dose: 100.0 mg/kg/injection, schedule: Q04DX003 (ip), vehicle: saline + alcohol 100 % of control | dose: 200.0 mg/kg/injection, schedule: Q01DX009 (ip), vehicle: saline 98 % of control | dose: 200.0 mg/kg/injection, schedule: Q04DX003 (ip), vehicle: saline + alcohol 100 % of control | dose: 400.0 mg/kg/injection, schedule: Q01DX009 (ip), vehicle: saline 98 % of control | dose: 400.0 mg/kg/injection, schedule: Q04DX003 (ip), vehicle: saline + alcohol 108 % of control

CCCCNC(=O)c1ccc(C)c(OCc2ccccc2)c1[N+](=O)[O-]
inactive: [1] 108 % of control | [3] 87 % of control | [5] 90 % of control

c1ccc2nc(NN=C3CCCCC3)ccc2c1
inactive: dose: 10.0 mg/kg/injection, schedule: Q01DX001 (ip), vehicle: saline 107 % of control | dose: 20.0 mg/kg/injection, schedule: Q01DX001 (ip), vehicle: saline 97 % of control | dose: 40.0 mg/kg/injection, schedule: Q01DX001 (ip), vehicle: saline 95 % of control

O=[N+]([O-])C1CC12c1ccccc1-c1ccccc12 (stereo not drawn)
inactive: dose: 75.0 mg/kg/injection, schedule: Q01DX001 (ip), vehicle: carboxymethylcellulose (CMC) 106 % of control | dose: 150.0 mg/kg/injection, schedule: Q01DX001 (ip), vehicle: carboxymethylcellulose (CMC) 103 % of control | dose: 300.0 mg/kg/injection, schedule: Q01DX001 (ip), vehicle: carboxymethylcellulose (CMC) 97 % of control
